Values of other authors, collected in patent US20070009923A1, “Use of bayesian networks for modeling cell signaling systems” (Massachusetts Institute of Technology, priority 2005, published 2007).

Test system: PKC isozymes

In the case of Cn1c2ccccc2c2c3c(c4c5ccccc5n(CCC#N)c4c21)CNC3=O [G06976], the IC50 is given as less than 8 nM.
